Laboratory results as given in patent US9359338B2, “Cyclopropanecarboxamido-substitute aromatic compounds as anti-tumor agents” (Crown Bioscience Inc. (Taiwan), priority 2012, dated 2016).
Like-named read-outs stand apart in the source and are kept apart here.

Assays:
[1] = tested on: PLC-PRF-5 cells; test: Inhibition of proliferation of PLC-PRF-5 cells (ATPlite); format: cell-based; settings: Homo sapiens
Summary of the method: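 PLC-PRF-5 cells in DMEM/10% FBS, seeded 2 h before compound; 8-point 3-fold dilutions from 30 μM final top, 0.3% DMSO. After 96 h at 37 °C, 5% CO2, ATP content read by ATPlite luminescence; IC50 calculated.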

[2] = target: KDR kinase (790-1356 AA) (Homo sapiens (Human), UniProt P35968); test: Inhibitory activity at KDR kinase (Lance Ultra Ulight-TK assay); format: biochemical
Sequence of KDR kinase (790-1356 AA) (P35968 790-1356): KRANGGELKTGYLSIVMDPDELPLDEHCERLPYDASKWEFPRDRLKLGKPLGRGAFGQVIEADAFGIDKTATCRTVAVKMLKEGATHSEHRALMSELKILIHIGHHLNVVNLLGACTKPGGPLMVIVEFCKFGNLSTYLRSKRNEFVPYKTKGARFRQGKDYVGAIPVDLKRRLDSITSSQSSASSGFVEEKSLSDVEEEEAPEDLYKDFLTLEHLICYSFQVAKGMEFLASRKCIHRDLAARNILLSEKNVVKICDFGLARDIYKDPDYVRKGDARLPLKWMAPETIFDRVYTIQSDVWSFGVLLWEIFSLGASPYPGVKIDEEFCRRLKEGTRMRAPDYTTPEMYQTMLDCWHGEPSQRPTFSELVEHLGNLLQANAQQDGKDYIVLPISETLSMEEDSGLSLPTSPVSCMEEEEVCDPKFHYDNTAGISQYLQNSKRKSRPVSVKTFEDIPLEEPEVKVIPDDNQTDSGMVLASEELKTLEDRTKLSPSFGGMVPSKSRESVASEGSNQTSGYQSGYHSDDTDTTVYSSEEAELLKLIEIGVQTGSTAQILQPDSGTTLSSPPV
Summary of the method: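 TR-FRET (Eu-anti-phosphotyrosine PT66) with 20 nM KDR preincubated with compound 20 min at 30 °C in HEPES pH 7.5 buffer with Mg2+/Mn2+, 0.5% DMSO.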

[3] = target: B-Raf kinase (Homo sapiens (Human), UniProt P15056); test: Inhibitory activity at B-Raf kinase (ADP-GLO assay); format: biochemical
Sequence of B-Raf kinase (P15056 416-766): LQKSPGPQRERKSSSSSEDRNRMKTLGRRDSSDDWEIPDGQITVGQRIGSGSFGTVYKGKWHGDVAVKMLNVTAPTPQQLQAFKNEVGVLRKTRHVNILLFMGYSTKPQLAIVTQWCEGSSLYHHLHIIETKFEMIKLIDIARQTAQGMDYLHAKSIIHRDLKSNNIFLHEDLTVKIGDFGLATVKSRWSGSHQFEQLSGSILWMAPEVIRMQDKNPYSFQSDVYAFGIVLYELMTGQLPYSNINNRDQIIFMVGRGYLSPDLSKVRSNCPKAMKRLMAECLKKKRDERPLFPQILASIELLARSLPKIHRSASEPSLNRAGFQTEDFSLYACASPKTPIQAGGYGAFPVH
Description: Inhibitory Activity of Compounds at B-Raf Kinase
• [Experimental method]: Use ADP-GLO™ assay kit from Promega to evaluate the inhibitory activity of compounds at B-Raf • [Instrument]: PerKinElmer's ENVISION plate reader • [Material]: Optiplate-384 well plate (PerKinElmer), kinase buffer (50 mM Hepes pH7.5, 1 mM EGTA, 2 mM DTT, 10 mM Mg^2+, 0.05% BSA), B-Raf kinase (Millipore, catalogue #14-530-K), GST-MEK1 substrate (Carna, catalogue #07-141-10), Super pure ATP (Promega), ADP-GLO™ assay kit (Promega, catalogue # V9102), DMSO (Sigma, catalogue #34869), purified water (Millipore, type: Milli-Q). • [Study conditions]: Mix B-Raf kinase (final concentration: 5 nM) and compound (DMSO final concentration: 0.25%) and preincubate at 30° C. for 20 min, then add ATP (final concentration: 6 μM) and reaction substrate (final concentration: 30 nM), React for 2 hrs at 30° C. After reaction, add ADP-GLO™ reagent, react for 40 min at room temperature, then add ADP-GLO™ detecting agent, react for 30 min at room temperature. After that, use ENVSION to measure the […]. • [Samples]: Compounds in the examples and Sorafenib (positive control) • [Data analysis]: Use CBIS data analysis software to calculate IC50 values

[4] = tested on: pERK in MDA-MB-231 cells; test: Inhibitory activity at pERK (In Cell Western, MDA-MB-231 cells); format: cell-based; settings: Homo sapiens
Summary of the method: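 MDA-MB-231 cells were treated 2 h at 37 °C with 8 compound concentrations in 3-fold dilutions from 30 μM top (0.3% DMSO, DMEM with 0.1% BSA). Cells were then fixed, methanol-permeabilized and immunostained for pERK with PI counterstain. Fluorescence was read on Acumen and IC50 calculated.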

[5] = PLC-PRF-5, PLC-PRF-5 cells, read-out: PLC-PRF-5 cell proliferation IC50
[6] = MDA-MB-231, MDA-MB-231 cells, read-out: MDA-MB-231 pERK IC50
[7] = PLC-PRF-5, read-out: PLC-PRF-5 cell proliferation IC50
[8] = MDA-MB-231, read-out: MDA-MB-231 pERK IC50

Row | SMILES | IC50 [1, 5] [nM] | IC50 [2] [nM] | IC50 [3] [nM] | IC50 [4, 6] [nM] | IC50 [1, 7] [nM] | IC50 [4, 8] [nM]
1 | O=C(Nc1ccc(Oc2ccnc(NC(=O)C3CC3)c2)c(F)c1)Nc1ccc2[nH]cc(F)c2c1 [Exe. 059] | 643 | 8.2 | 90 | 19.4 |  | 
2 | O=C(Nc1cccc(C(F)(F)F)c1)Nc1ccc(Oc2ccnc(NC(=O)C3CC3)c2)c(F)c1 [Exe. 061] | 211 | 3.73 | 6.3 | 26.3 |  | 
3 | N#Cc1ccc(NC(=O)Nc2ccc(Oc3ccnc(NC(=O)C4CC4)c3)c(F)c2)cc1C(F)(F)F [Exe. 062] |  | 7.18 | 7 |  | 3050 | 29.4
4 | O=C(Nc1ccc(Oc2ccnc(NC(=O)C3CC3)c2)c(F)c1)Nc1ccc(Cl)c(OC(F)(F)F)c1 [Exe. 063] | 2330 | 5.5 | 14.9 | 29.1 |  | 
5 | CC(F)(F)c1cncc(NC(=O)Nc2ccc(Oc3ccnc(NC(=O)C4CC4)c3)cc2)c1 [Exe. 065] | 162 | 6.5 | 25 | 46.5 |  | 
6 | Cc1cc(Oc2cc(NC(=O)C3CC3)ncn2)ccc1NC(=O)Nc1ccc(F)c(C(F)(F)F)c1 [Exe. 070, N-[6-[4-[[4-fluoro-3-(trifluoromethyl)phenyl]carbamoylamino]-3-methyl-phenoxy]pyrimidin-4-yl]cyclopropanecarboxamide] | 9300 | 11 | 145 | 63.5 |  | 
7 | Cc1cc(Oc2cc(NC(=O)C3CC3)ncn2)ccc1NC(=O)Nc1cccc(C(F)(F)F)c1 [Exe. 074] | 6070 | 10.5 | 146 | 77.5 |  | 
8 | Cc1cc(Oc2cc(NC(=O)C3CC3)ncn2)ccc1NC(=O)Nc1ccc(Cl)c(C(C)(F)F)c1 [Exe. 085] | 11000 | 10.7 | 45 | 19.3 |  | 
9 | CC(F)(F)c1cc(NC(=O)Nc2ccc(Oc3cc(NC(=O)C4CC4)ncn3)c(F)c2)ccc1Cl [Exe. 105] | 1900 | 11.3 | 153 | 85.5 |  | 
10 | O=C(Nc1ccc(Oc2cc(NC(=O)C3CC3)ncn2)cc1F)Nc1cc(C(F)(F)F)ccc1F [Exe. 107] | 324 | 13.4 | 31 | 20.2 |  | 
11 | O=C(Nc1cccc(C(F)(F)F)c1)Nc1ccc(Oc2cc(NC(=O)C3CC3)ncn2)cc1F [Exe. 108] | 1610 | 8.6 | 41 | 20 |  | 
12 | CC(F)(F)c1ccc(F)c(NC(=O)Nc2ccc(Oc3cc(NC(=O)C4CC4)ncn3)cc2F)c1 [Exe. 109] | 274 | 10.9 | 32 | 9.8 |  | 
13 | CC(F)(F)c1cc(NC(=O)Nc2ccc(Oc3cc(NC(=O)C4CC4)ncn3)cc2F)ccc1Cl [Exe. 110] | 1580 | 7.3 | 24 | 13.4 |  | 
14 | Cc1cc(NC(=O)Nc2cc(C(C)(F)F)ccc2F)ccc1Oc1cc(NC(=O)C2CC2)ncn1 [Exe. 116] | 125 | 7.9 | 111 | 30.4 |  | 
15 | Cc1cc(NC(=O)Nc2ccc(F)c(C(C)(F)F)c2)ccc1Oc1cc(NC(=O)C2CC2)ncn1 [Exe. 118] | 706 | 7.4 | 293 | 55.3 |  | 
16 | Cc1cc(NC(=O)Nc2cc(C(F)(F)F)ccc2F)cnc1Oc1ccnc(NC(=O)C2CC2)c1 [Exe. 124] | 160 | 13.8 | 10.4 | 19.4 |  | 
17 | COc1ccc(NC(=O)Nc2cnc(Oc3ccnc(NC(=O)C4CC4)c3)c(C)c2)cc1C(F)(F)F [Exe. 125] | 1720 | 8.7 | 8.6 | 4.7 |  | 
18 | Cc1cc(NC(=O)Nc2cc(OC(C)C)cc(C(F)(F)F)c2)cnc1Oc1ccnc(NC(=O)C2CC2)c1 [Exe. 126] | 2440 | 30.2 | 61.4 | 24.3 |  | 
19 | Cc1cc(Oc2ccnc(NC(=O)C3CC3)c2)ncc1NC(=O)Nc1cc(C(F)(F)F)ccc1F [Exe. 127] | 642 | 11.8 | 7.2 | 11.6 |  | 
20 | Cc1cc(Oc2ccnc(NC(=O)C3CC3)c2)ncc1NC(=O)Nc1cc(C(C)(F)F)ccc1F [Exe. 128] | 819 | 9.8 | 6.2 | 38 |  | 
21 | CS(=O)(=O)c1cc(NC(=O)Nc2ccc(Oc3ccnc(NC(=O)C4CC4)c3)nc2)cc(C(F)(F)F)c1 [Exe. 130] | 4990 | 4.6 | 29.7 | 725 |  | 
22 | CN1CCC(Nc2cc(NC(=O)Nc3ccc(Oc4ccnc(NC(=O)C5CC5)c4)nc3)cc(C(F)(F)F)c2)CC1 [Exe. 131] | 10500 | 6.1 | 12.5 | > 1000 |  | 
23 | O=C(Nc1ccc(Oc2ccnc(NC(=O)C3CC3)c2)nc1)Nc1cc(N2CCS(=O)(=O)CC2)cc(C(F)(F)F)c1 [Exe. 132] | 5910 | 10 | 39 | 341 |  | 
24 | N#Cc1ccc(NC(=O)Nc2ccc(Oc3ccnc(NC(=O)C4CC4)c3)cn2)cc1C(F)(F)F [Exe. 133] |  | 9.1 | 25 |  | 1020 | 23.6
25 | CS(=O)(=O)c1cc(NC(=O)Nc2ccc(Oc3ccnc(NC(=O)C4CC4)c3)cn2)cc(C(F)(F)F)c1 [Exe. 136] | 470 | 6.6 | 29 | 46 |  | 
26 | O=C(Nc1ccc(Oc2ccnc(NC(=O)C3CC3)c2)cc1)Nc1ccc(Cl)c(C(F)(F)F)c1 [Exe. 137] | 5960 | 10.2 | 11.3 | 7.8 |  | 
27 | O=C(Nc1ccc(Oc2ccnc(NC(=O)C3CC3)c2)cc1)Nc1ccc(F)c(C(F)(F)F)c1 [Exe. 138] | 1510 | 10.5 | 26 | 9.1 |  | 
28 | N#Cc1ccc(NC(=O)Nc2ccc(Oc3ccnc(NC(=O)C4CC4)c3)cc2)cc1C(F)(F)F [Exe. 139] |  | 10 | 13 |  | 654 | 10.9
29 | O=C(Nc1ccc(Oc2ccnc(NC(=O)C3CC3)c2)cc1)Nc1cc(F)cc(C(F)(F)F)c1 [Exe. 141] | 642 | 7.1 | 125 | 40.4 |  | 
30 | O=C(Nc1ccc(Oc2ccnc(NC(=O)C3CC3)c2)cc1)Nc1cc(C(F)(F)F)ccc1Cl [Exe. 142] | 642 | 10.4 | 39 | 13.9 |  | 
